Source: ChEMBL document CHEMBL5505992, “Novel membrane-targeting isoxanthohumol-amine conjugates for combating methicillin-resistant Staphylococcus aureus (MRSA) infections” (Eur J Med Chem, 2024)
Activity calls are given as the source filed them. No cut-off for these calls is given here.

How the values were obtained:
[1] = test system: Staphylococcus aureus; experiment: Bactericidal activity against Staphylococcus aureus ATCC 29213 assessed as bacterial killing at 4 times MIC measured within 4 to 8 hrs by time kill assay relative to control; assay type: functional; conditions: time 4-8 hrs
[2] = test system: Staphylococcus aureus; experiment: Bactericidal activity against Staphylococcus aureus ATCC 29213 assessed as bacterial killing measured upto 8 hrs by time kill assay; assay type: functional, organism-based
[3] = test system: Staphylococcus aureus; experiment: Induction of morphological changes in methicillin-resistant Staphylococcus aureus clinical isolate MRSA-16 assessed as ruptured cell surface at 16 ug/ml incubated for 4 hrs by SEM analysis; assay type: functional, organism-based; conditions: dose 16.0 µg/ml
[4] = test system: Cell membrane; experiment: Induction of cell membrane depolarization in methicillin-resistant Staphylococcus aureus clinical isolate MRSA-16 assessed as increase in fluorescence intensity measured after 10 mins by DISC3(5) staining based analysis; assay type: cell membranes; conditions: dose 8-32 µg/ml
[5] = test system: Cell membrane; experiment: Induction of cell membrane depolarization in methicillin-resistant Staphylococcus aureus clinical isolate MRSA-16 assessed as fold increase in fluorescence intensity at 32 ug/ml measured every 2 mins for 20 mins by DISC3(5) staining based analysis; assay type: cell membranes; conditions: dose 32.0 µg/ml
[6] = test system: Cell membrane; experiment: Induction of cell membrane permeability in methicillin-resistant Staphylococcus aureus clinical isolate MRSA-16 assessed as dead cells (Q1 region) at 8 ug/ml incubated for 2 hrs by SYTO 9 and PI staining based flow cytometry analysis (reference value: 0.00%); assay type: cell membranes; conditions: dose 8.0 µg/ml
[7] = test system: Cell membrane; experiment: Induction of cell membrane permeability in methicillin-resistant Staphylococcus aureus clinical isolate MRSA-16 assessed as dead cells (Q1 region) at 64 ug/ml incubated for 2 hrs by SYTO 9 and PI staining based flow cytometry analysis (reference value: 0.00%); assay type: cell membranes; conditions: dose 64.0 µg/ml
[8] = test system: Cell membrane; experiment: Induction of cell membrane permeability in methicillin-resistant Staphylococcus aureus clinical isolate MRSA-16 assessed as decrease in intact cells (Q3 region) at 4 ug/ml incubated for 2 hrs by SYTO 9 and PI staining based flow cytometry analysis (reference value: 99.07%); assay type: cell membranes; set-up: scale not given: the % may be the effect or the level left; conditions: dose 4.0 µg/ml
[9] = test system: Cell membrane; experiment: Induction of cell membrane permeability in methicillin-resistant Staphylococcus aureus clinical isolate MRSA-16 assessed as decrease in intact cells (Q3 region) at 32 ug/ml incubated for 2 hrs by SYTO 9 and PI staining based flow cytometry analysis (reference value: 99.07%); assay type: cell membranes; set-up: scale not given: the % may be the effect or the level left; conditions: dose 32.0 µg/ml
[10] = test system: Cell membrane; experiment: Induction of cell membrane permeability in methicillin-resistant Staphylococcus aureus clinical isolate MRSA-16 assessed as increase in damaged cells (Q2 region) at 8 ug/ml incubated for 2 hrs by SYTO 9 and PI staining based flow cytometry analysis (reference value: 0.91%); assay type: cell membranes; conditions: dose 8.0 µg/ml
[11] = test system: Cell membrane; experiment: Induction of cell membrane permeability in methicillin-resistant Staphylococcus aureus clinical isolate MRSA-16 assessed as increase in damaged cells (Q2 region) at 16 ug/ml incubated for 2 hrs by SYTO 9 and PI staining based flow cytometry analysis (reference value: 0.91%); assay type: cell membranes; conditions: dose 16.0 µg/ml
[12] = test system: Cell membrane; experiment: Induction of cell membrane permeability in methicillin-resistant Staphylococcus aureus clinical isolate MRSA-16 assessed as increase in damaged cells (Q2 region) at 32 ug/ml incubated for 2 hrs by SYTO 9 and PI staining based flow cytometry analysis (reference value: 0.91%); assay type: cell membranes; conditions: dose 32.0 µg/ml
[13] = test system: Staphylococcus aureus; experiment: Antibacterial activity against methicillin-resistant Staphylococcus aureus in presence of phosphatidylethanolamine; assay type: functional, organism-based
[14] = Toxicity in Kunming mouse assessed as animal death at 20 mg/kg, sc measured after 24 hrs; assay type: organism-based; conditions: in vivo
[15] = Toxicity in Kunming mouse assessed as animal death at 5 to 10 mg/kg, sc measured after 24 hrs; assay type: organism-based; conditions: in vivo, dose 5-10 mg/kg
[16] = Toxicity in Kunming mouse assessed as histopathological abnormalities in heart at 10 mg/kg, sc measured after 24 hrs by H and E staining based analysis; assay type: organism-based; conditions: in vivo
[17] = Toxicity in Kunming mouse assessed as histopathological abnormalities in liver at 10 mg/kg, sc measured after 24 hrs by H and E staining based analysis; assay type: organism-based; conditions: in vivo
[18] = Toxicity in Kunming mouse assessed as histopathological abnormalities in lung at 10 mg/kg, sc measured after 24 hrs by H and E staining based analysis; assay type: organism-based; conditions: in vivo
[19] = Toxicity in Kunming mouse assessed as histopathological abnormalities in kidney at 10 mg/kg, sc measured after 24 hrs by H and E staining based analysis; assay type: organism-based; conditions: in vivo
[20] = test system: Staphylococcus aureus; experiment: Antibacterial activity against methicillin-resistant Staphylococcus aureus infected in Kunming mouse skin infection model assessed as effect on skin lesions in subcutaneous tissue at 8 mg/kg,sc measured after 24 hrs; assay type: functional, organism-based
[21] = test system: Staphylococcus aureus; experiment: Antibacterial activity against methicillin-resistant Staphylococcus aureus infected in Kunming mouse skin infection model assessed as effect on skin abscesses in dorsal surface at 4 mg/kg,sc measured after 24 hrs; assay type: functional, organism-based
[22] = test system: Staphylococcus aureus; experiment: Antibacterial activity against methicillin-resistant Staphylococcus aureus infected in Kunming mouse skin infection model assessed as effect on skin abscesses at 4 mg/kg,sc measured after 24 hrs; assay type: functional, organism-based
[23] = test system: Staphylococcus aureus; experiment: Antibacterial activity against methicillin-resistant Staphylococcus aureus infected in Kunming mouse skin infection model assessed as decrease in bacterial load at 4 mg/kg,sc measured after 24 hrs relative to control; assay type: functional; set-up: scale not given: the % may be the effect or the level left
[24] = Toxicity in Kunming mouse assessed as effect on heart at 4 to 8 mg/kg, sc measured after 24 hrs by H and E staining based analysis; assay type: organism-based; conditions: in vivo, dose 4-8 mg/kg
[25] = Toxicity in Kunming mouse assessed as effect on spleen at 4 to 8 mg/kg, sc measured after 24 hrs by H and E staining based analysis; assay type: organism-based; conditions: in vivo, dose 4-8 mg/kg
[26] = Toxicity in Kunming mouse assessed as effect on lung at 4 to 8 mg/kg, sc measured after 24 hrs by H and E staining based analysis; assay type: organism-based; conditions: in vivo, dose 4-8 mg/kg
[27] = Toxicity in Kunming mouse assessed as effect on kidney at 4 to 8 mg/kg, sc measured after 24 hrs by H and E staining based analysis; assay type: organism-based; conditions: in vivo, dose 4-8 mg/kg
[28] = Toxicity in Kunming mouse assessed as histopathological abnormalities in heart at 4 to 8 mg/kg, sc measured after 24 hrs by H and E staining based analysis; assay type: organism-based; conditions: in vivo, dose 4-8 mg/kg
[29] = Toxicity in Kunming mouse assessed as histopathological abnormalities in spleen at 4 to 8 mg/kg, sc measured after 24 hrs by H and E staining based analysis; assay type: organism-based; conditions: in vivo, dose 4-8 mg/kg
[30] = Toxicity in Kunming mouse assessed as histopathological abnormalities in lung at 4 to 8 mg/kg, sc measured after 24 hrs by H and E staining based analysis; assay type: organism-based; conditions: in vivo, dose 4-8 mg/kg
[31] = test system: Staphylococcus aureus; experiment: Antibacterial activity against Staphylococcus aureus ATCC 29213 measured after 16 to 18 hrs by CLSI method; assay type: functional; conditions: time 16-18 hrs
[32] = test system: Staphylococcus aureus; experiment: Antibacterial activity against methicillin-resistant Staphylococcus aureus clinical isolate MRSA-13 measured after 16 to 18 hrs by CLSI method; assay type: functional; conditions: time 16-18 hrs
[33] = test system: Staphylococcus aureus; experiment: Antibacterial activity against methicillin-resistant Staphylococcus aureus clinical isolate MRSA-20 measured after 16 to 18 hrs by CLSI method; assay type: functional; conditions: time 16-18 hrs
[34] = test system: Staphylococcus aureus; experiment: Antibacterial activity against methicillin-resistant Staphylococcus aureus clinical isolate MRSA-22 measured after 16 to 18 hrs by CLSI method; assay type: functional; conditions: time 16-18 hrs
[35] = Hemolytic activity in sheep erythrocytes incubated for 1 hr by absorbance based analysis; assay type: toxicity, cell-based, Ovis aries, Erythrocyte

CCCC[N+](C)(CCCC)CCCCCOc1ccc(C2CC(=O)c3c(OC)cc(OCCCCC[N+](C)(CCCC)CCCC)c(CC=C(C)C)c3O2)cc1.[I-].[I-] (stereo not given)
Activity [1]: 100%
Activity [2]: Dose-Dependent Effect
Activity [3]: Active
Activity [4]: Dose-Dependent Effect
fold change (FC) [5]: 4.5
Activity [6]: 2.94%
Activity [7]: 100%
Activity [8]: 60.8%
Activity [9]: 0.02%
Activity [10]: 57.4%
Activity [11]: 69.9%
Activity [12]: 0.79%
Activity [13]: Active
Activity [14]: Toxic
Activity [15]: Non-Toxic
Activity [16]: Non-Toxic
Activity [17]: Non-Toxic
Activity [18]: Non-Toxic
Activity [19]: Non-Toxic
Activity [20]: inactive
Activity [21]: Active
Activity [22]: Active
Activity [23]: 99.86%
Activity [24]: Non-Toxic
Activity [25]: Non-Toxic
Activity [26]: Non-Toxic
Activity [27]: Non-Toxic
Activity [28]: Non-Toxic
Activity [29]: Non-Toxic
Activity [30]: Non-Toxic
MIC [31]: 1 µg/mL
MIC [32]: 0.25 µg/mL
MIC [33]: 0.5 µg/mL
MIC [34]: 1 µg/mL
HC50 at 1 h [35]: > 1280 µg/mL
